Assay results from patent US4254285A, “1-Hydroxymethyl-1-1-oxo prostane derivatives of the E and F series” (American Cyanamid Company, priority 1979, dated 1981).

How the values were obtained:
Format in all cases: in vivo
[1] = test system: continuous respiratory spasm induced by pilocarpine; assay: Bronchodilator Activity (Pilocarpine Assay); settings: Canis lupus familiaris, inhaled or nasal, dog, aerosol, 3.2 mg/ml
Method: The PGE compounds of this invention also have bronchodilator activity as determined in a test using dogs anesthetized, artificially ventilated and submitted to a continuous respiratory spasm induced by pilocarpine. Mongrel dogs of either sex weighing between 5 and 10 kg are used. They are premedicated with morphine HCl by subcutaneous injection at 1.5 mg/Kg. An intravenous perfusion of 5% (W/V) chloralose is started 1/2 hour after the morphine injection in such a way that 60 mg/Kg are administered within 15 minutes. After completion, a continuous perfusion of 10 mg/Kg hour is maintained throughout the experiment. The dogs are artificially ventilated by means of a Starling pump at a rate of 20 breaths/minute. The volume is adjusted according to the weight of the animal. [Kleinman and Radford, J. Appl. Physiol., 19, 360 (1964)]. All the measurements are made with the dogs positioned supine in a heated, V-shaped table. Curarization is obtained by succinylcholine chloride using a starting injection of 3 mg/Kg lasting 3 minutes, followed by a continuous perfusion of 0.1 mg/Kg/minute. The respiratory spasm is induced by a starting injection of 400 mcg/Kg of pilocarpine HCl lasting 5 minutes. An increase or decrease in the dose of pilocarpine HCl may occur as a function of the observed effect on airway's resistance. A 15 minute delay is observed before the start of a continuous perfusion of pilocarpine HCl at a dose of 4 mcg/Kg/minute to maintain a constant spasm during the test. A metallic cannula is inserted and fixed, after tracheotomy, into the upper part of the trachea. The two cephalic veins and the two femoral veins are catheterized to inject the various agents. The femoral artery is catheterized to measure the systemic blood pressure. An esophageal balloon (11 cm×2.5 cm) is inserted into the lower third of the oesophagus to measure the endothoracic pressure. The measurement of air flow is made with a […] pneumotachograph connected to the tracheal tube. The transpulmonary pressure is measured as follows: The tracheal cannula is equipped with a stainless steel axial tube (1.5 mm) which is closed at its distal end and projected 2.5 cm beyond the end of the cannula. Three holes with a diameter of one mm are pierced on this latter segment. This tube, which is used to measure the tracheal pressure, is connected to one of the two chambers of a Sanborn 267 B/C differential transducer. The other chamber is connected to the esophageal balloon by means of a polyethylene catheter of the same length and characteristics as the balloon's. The airway's resistance, expressed in cm of water/liter/second, is measured by subtracting from the electrical equivalent of the transpulmonary pressure, a voltage proportional to the flow so as to synchronize the pressure and volume signals on the oscilloscope [Mead and Whittenberger, J. Appl. Physiol, 5, 779 (1953)]. The test compounds are administered by an Aerosol® route. The micronebulizer of a Bird Mark 7 respirator is fitted on the metallic cannula just after the pneumotachograph. The "puff" of the test compound, in Aerosol® is driven by a 2 Kg/cm^2 pressure, allowed into the micronebulizer just during one inspiration cycle. The micronebulizer is fitted on the respiratory tube only during the "puff". It is weighed just before and just after administration to determine the amount of test compound administered.

[2] = test system: bronchospasms elicited by histamine; assay: Bronchodilator Activity (Konzett Assay), histamine; settings: Cavia porcellus; guinea pig, intravenous, spasmogen histamine, three logarithmic cumulative doses; read-out: ED50
Method: (§1) The bronchodilator activity of some of the PGE compounds of this invention is determined in guinea pigs against bronchospasms elicited by intravenous injections of 5-hydroxytryptamine, histamine or acetylcholine by the Konzett procedure. [See J. Lulling, P. Lievens, F. El Sayed and J. Prignot, Arzneimittel-Forschung, 18, 995 (1968)].
(§2) In the Table B which follows, bronchodilator activity for representative compounds of this invention against one or more of the three spasmogenic agents is expressed as an ED50 determined from the results obtained with three logarithmic cumulative intravenous doses.

[3] = test system: bronchospasms elicited by 5-hydroxytryptamine; assay: Bronchodilator Activity (Konzett Assay), 5-hydroxytryptamine; settings: Cavia porcellus; guinea pig, intravenous, spasmogen 5-hydroxytryptamine, three logarithmic cumulative doses; read-out: ED50
Method: as §1, §2

[4] = test system: stress-induced (immersion) ulcers; assay: Restraint--Immersion Stress Ulcers in the Rat (Wilson)
Method: Male "Sprague--Dawley Derived" rats (Locke--Erickson Laboratories, Maywood, Illinois) weighing 150 to 200 g, are fasted, and provided drinking water for 16 to 19 hours prior to the start of the study. At 0 time the rats are dosed orally with compound or vehicle, (approximately 0.5 ml) and then secured in a Bollman-type restraining cage. Five minutes after dosing, the animals are immersed (tail downward) to "shoulder level" into a 22° C. water bath for 100 minutes. At the end of this period, the animals are decapitated and their stomachs promptly excised with about 5 mm each of esophagus and duodenum.
With a blunt tipped scissor the stomach is opened along the greater curvature, starting at the tip of the rumen through the glandular mucosa into the pylorus and opening the bit of duodenum along its amesenteric border. Debris is removed from stomach by rinsing in saline at room temperature and gently blotting it with gauze or filter paper. The stomach is then spread out, mucosal surface upward on a 3×5 file card or similar material.
With an illuminated magnifier the lesions are counted (for total lesion count) and scored (for weighted score) after the method described by G. Osterloh, et al., Arzneimittel-Forschung, 16 (8a):901910, August 1966. The score for each lesion is given in the following table, modified from the paper.
Very large (area) non-perforating lesions are frequently seen. These are measured as so many 3 mm diameter ulcers and scored as multiples of #7.
Rats were dosed by gavage with compound or vehicle and submerged into a
22° C. water bath for 100 minutes. At the end of this period,
animals were sacrificed and their stomachs removed and scored for ulcers.

gastric acid secretion = assay: Gastric Acid Secretion in the Dog Fistula; settings: 10 μg/kg I.G.; for cumulative two-hour gastric secretion, acid: n = 6, control 17.2 ± 1.6; for cumulative two-hour gastric secretion, volume: n = 6, control 130 ± 11
Method: Three mongrel dogs (20-32 kg) were surgically prepared with stainless steel cannulae. These were inserted into the most dependent portion of the ventral stomach and exteriorized through the abdomen for the collection of gastric secretions. The dogs were trained to stand quietly in a Pavlov support and were conscious during subsequent secretory studies.
^a After a 26hour fast, gastric acid secretion was submaximally
stimulated, beginning 45 minutes after treatment, using a constant
intravenous infusion of histamine acid phosphate ([…]).
^b Each of three dogs was treated six to seven times with vehicle
(control) and one to three times with each compound; n is the number of
experiments conducted with each treatment.
^c Total secretion from 45-120 minutes following intragastric (I.G.)
administration of drugs or vehicle. Mean effects of treatment were
compared to control means by Student's t test. Compound A is […]

[5] = test system: bronchospasms elicited by acetylcholine; assay: Bronchodilator Activity (Konzett Assay), acetylcholine; settings: Cavia porcellus; guinea pig, intravenous, spasmogen acetylcholine, three logarithmic cumulative doses; read-out: ED50
Method: as §1, §2

[6] = 5 min, 5 min. after drug administration
[7] = 0.5 h, 30 min. after drug administration
[8] = 1 h, 60 min. after drug administration

Row | Compound | inhibition at 3200 µg/mL [1, 6] | inhibition at 3200 µg/mL [1, 7] | inhibition at 3200 µg/mL [1, 8] | ED50 [2] | ED50 [3] | % Reduction of ulcer score ([4]; 3 mg/Kg P.O.) | % Reduction of ulcer score ([4]; 16 mg/Kg P.O.) | % Reduction of ulcer score ([4]; 80 mg/Kg P.O.) | % Reduction of ulcer score ([4]; 200 mg/Kg P.O.) | % Reduction of ulcer score ([4]; 500 mg/Kg P.O.) | cumulative two-hour gastric secretion, acid (gastric acid secretion) | cumulative two-hour gastric secretion, volume (gastric acid secretion) | ED50 [5]
1 | CCCCC(C)(O)CC=CC1C(O)CC(=O)C1CCCCCCC(=O)CO (centres unmarked) | 90% | 70% | 45% | 0.943 µg/kg | 3 µg/kg | 62% | 85% | 82% | 67% | 82% | 6.9 ± 2.8 mEq H^+ | 59 ± 19 mL | 4.7 µg/kg
2 | CCCCC(C)(O)CC=CC1C(O)CC(=O)C1CC=CCCCC(=O)CO (stereo not drawn) [1,9-dioxo-11α,16-dihydroxy-16-methyl-1-hydroxymethyl-5-cis-13-trans-prostadiene] | 90% | 90% | 70% | 3 µg/kg | 3.81 µg/kg | – | – | – | 85% | 95% | 7.5 ± 2.1 mEq H^+ | 76 ± 16 mL | 6.4 µg/kg
